“And” between values parts separate entries of the source, which are not always exact repeats. Equal entries are not always repeated.

The test system of assay [1] is CD-1 mice. Format: in vivo, mouse.
Assay [2] concerns CD-1 mice. Format: in vivo, mouse. The source holds these as a separate data set.
In assay [3] the test system is CD-1 mice. The conditions noted are these: mouse, in vivo.

Take `CN(C)CCCN1c2ccccc2CCc2ccccc21` [IMI, imipramine]: the “motionlessness time (behavioral despair state) in TST of BCG+PTX model mice” value in the assay with CD-1 mice [1] (mouse, in vivo) is “improved”. In addition, in the assay on CD-1 mice [2] (mouse, in vivo), the “exploratory behaviors in open-field test of BCG+PTX model mice” value is on record as “increased”, the “exploratory behaviors in open-field test of depression model mice” value is “decreased”, the “number of times of zone crossing in open-field test of BCG+PTX model mice” value was “increased” and the “number of times of zone crossing in open-field test of depression model mice” value is “decreased”. In the assay with CD-1 mice [2] (mouse, in vivo), the “total movement distance in open-field test of BCG+PTX model mice” value was “increased” and the “total movement distance in open-field test of depression model mice” value is reported as “decreased”. Moreover, the “sucrose preference rate in depression model mice” value in the assay on CD-1 mice [3] is on record as “significantly reduce”.
Turning to Bacille Calmette-Guerin [BCG], in the assay with CD-1 mice [1] (n=12), the “TST Motionlessness time” value was 122.60 ± 34.11 s and 98.84 ± 21.35 s. Moreover, in the assay with CD-1 mice [2] (n=12), the “Open-field test Number of times of exploratory behaviors” value is 23.83 ± 12.41 and 38.92 ± 15.96; the “Open-field test Number of times of zone crossing” value was 104.91 ± 35.1528 and 138.73 ± 23.44; the “Open-field test Total movement distance” value was 582.74 ± 211.42 cm and 734.20 ± 349.87 cm.

(Values after patent US11963519B2 (priority 2022, dated 2024).)
